Data on 2 molecules can be found in ChEMBL document CHEMBL5055675, “Apoptosis Inducing 1,3,4-Oxadiazole Conjugates of Capsaicin: Their In Vitro Antiproliferative and In Silico Studies” (ACS Med Chem Lett, 2021).

Type in all cases: functional
One experiment has as its system SK-OV-3. Description: Antiproliferative activity against human SK-OV-3 cells assessed as cell growth inhibition measured after 72 hrs by crystal violet staining based assay. As to conditions: SK-OV-3, 72 h.
Experiment [1] relates to NCI-H460. As to the kind of experiment: Antiproliferative activity against human NCI-H460 cells assessed as cell growth inhibition measured after 72 hrs by crystal violet staining based assay. The conditions noted are these: NCI-H460, 72 h.
For a further experiment, the system named is HCT-116. Description: Antiproliferative activity against human HCT-116 cells assessed as cell growth inhibition measured after 72 hrs by crystal violet staining based assay. As to conditions: HCT-116, 72 h.
Experiment [2] deals with NCI-H460. Description: Induction of apoptosis in human NCI-H460 cells assessed as early apoptotic cells measured after 72 hrs by Annexin V-FITC and propidium iodide staining based flow cytometry analysis (Rvb= 6.61%).
Experiment [3] concerns NCI-H460. As to the kind of experiment: Induction of apoptosis in human NCI-H460 cells assessed as late apoptotic cells measured after 72 hrs by Annexin V-FITC and propidium iodide staining based flow cytometry analysis (Rvb= 6.93%).

pIC50: −log10 of the molar value.

Consider `COc1cccc2c1C(=O)c1c(O)c3c(c(O)c1C2=O)C[C@@](O)(C(=O)CO)C[C@@H]3O[C@H]1C[C@H](N)[C@H](O)[C@H](C)O1` [DOXORUBICIN], for which the pIC50 in the experiment on SK-OV-3 was 7.59; in the experiment with NCI-H460 [1], 8.37; in the experiment on HCT-116, 7.24. In the experiment on NCI-H460 [2], the Activity turned out to be 7.16%.
Turning to `COc1cc(CNC(=O)CCCC/C=C/C(C)C)ccc1O` [CAPSAICIN], the pIC50 was 4.66 with SK-OV-3, 4.51 in the experiment with NCI-H460 [1] and 4.40 in the experiment on HCT-116. Moreover, the values for the Activity in the experiment with NCI-H460 [3] and in the experiment with NCI-H460 [2] were 7.25% and 7.17%, respectively.
